Assay results: patent US20220370440A1 (Lead Discovery Center GmbH, priority 2018, published 2022)
pIC50: −log10 of the molar value.

Assays:
[1] = biological target: Her2 Exon 20 INSYVMA Ba/F3 (Homo sapiens, UniProt P04626, DUP772-775, cells depend on it); experiment: Her2 Exon 20 INSYVMA Ba/F3 CellTiter-Glo; assay type: cell-based; settings: CellTiter-Glo, 72 h, read-out: Her2 Exon 20 INSYVMA Ba/F3 CTG IC50
Experimental: (§1) 2. Measurement of Cellular Activity
(§2) The CellTiter-Glo Luminescent Cell Viability Assay (Promega) is a homogeneous method of determining the number of viable cells in culture. It is based on quantification of ATP, indicating the presence of metabolically active cells. Cells are seeded on day 1 at cell numbers that assure assay linearity and optimal signal intensity. After incubation for 24 h in humidified chambers at 37° C. and 5% CO2, compounds in DMSO are added at different concentrations. Cells are further incubated for 72 h at 37° C. and 5% CO2. Cells treated with the compound vehicle DMSO are used as positive controls and cells treated with 10 μM Staurosporine serve as negative controls. At day 5 the CellTiter Glo Reagent is prepared according to the instructions of the kit (Promega Inc.): Reagent is mixed 1:1 with cell culture medium. Thereon, mixture and assay plates are equilibrated at room temperature for 20 min. Equal volumes of the reagent-medium-mixture is added to the volume of culture medium present in each well. The plates are mixed at ˜200 rpm for 2 minutes on an orbital shaker. The microplates are then incubated at room temperature for 10 minutes for stabilization of the luminescent signal. Following incubation the luminescence is recorded on a Victor microplate reader (Perkin Elmer) using a 200 ms integration time. The data is then analyzed with Excel using the XLFIT Plugin (dose response Fit 205) for IC50-determination. As quality control the Z′-factor is calculated from 16 positive and negative control values. Only assay results showing a Z′-factor ≥0.5 are used for further analysis.
(§3) Inhibition is indicated as IC50 [nM] (“−”=not measured). Compounds having an activity designated as “A” provided an IC50≤100 nM; compounds having an activity designated as “B” provided an 100 nM<IC50≤500 nM; compounds having an activity designated as “C” provided an 500 nM<IC50≤1000 nM; compounds having an activity designated as “D” provided an 1000 nM<IC50≤10000 nM; and compounds having an activity designated as “E” provided an IC50>10000 nM.

EGFR wt = EGFR wt (Homo sapiens, UniProt P00533); experiment: EGFR wt Lance assay; assay type: biochemical
Experimental: (§4) Inhibition is indicated as […] [nM] (“−”=not measured). Compounds having an activity designated as “A” provided an IC50≤100 nM; compounds having an activity designated as “B” provided an 100 nM<IC50≤500 nM; compounds having an activity designated as “C” provided an 500 nM<IC50≤1000 nM; compounds having an activity designated as “D” provided an 1000 nM<IC50≤100000 nM; and compounds having an activity designated as “E” provided an IC50>10000 nM.

[2] = biological target: EGFR Exon 20 INSNPH Ba/F3 (Homo sapiens, UniProt P00533, DUP771-773, cells depend on it); experiment: EGFR Exon 20 INSNPH Ba/F3 CellTiter-Glo; assay type: cell-based; settings: CellTiter-Glo, 72 h, read-out: EGFR Exon 20 INSNPH Ba/F3 CTG IC50
Experimental: as §1, §2, §3

H1975 = H1975 CellTiter-Glo; assay type: cell-based; settings: Homo sapiens, NCI-H1975; 72 h compound incubation; read-out: H1975 CTG IC50
Experimental: as §1, §2, §4

EGFR T790ML858R = EGFR T790ML858R (Homo sapiens, UniProt P00533, L858R/T790M); experiment: EGFR T790ML858R Lance assay; assay type: biochemical
Experimental: as §4

HER2 INS YVMA = biological target: T1, HER2 INS YVMA (Homo sapiens, UniProt P04626, INS775YVMA); experiment: Lance Kinase Activity Assay, HER2 INS YVMA (Her2 Exon 20 INSYVMA Lance); assay type: biochemical; settings: biochemical Lance assay
T1 construct: purchased DPF
Experimental: 1. Measurement of HER2 INS YVMA Kinase Activity
This protocol describes how the Lance Kinase Activity Assay was performed to determine IC50 values of compounds of general formula (I) against HER2 INS YVMA. The principle behind this enzymatic assay is based upon the phosphorylation of the Ulight-peptide substrate. It is detected by using a specific EU-labeled anti-phospho peptide antibody. The binding of the Eu labeled anti-phospho peptide antibody to the phosphorylated ULight labeled peptide gives rise to a FRET-signal.
Binding of an inhibitor to the kinase prevents phosphorylation of the Ulight-substrate, resulting in a loss of FRET. In table 2 is summarized the relevant information for the LANCE assay.
The compounds of general formula (I) summarized in Table 3 were serial diluted from a 10 mM DMSO stock solution 1:3 over 8 steps in a total volume of 20 μl.
For every sample, 8 μl of kinase-substrate mix was transferred into a suitable assay plate (e.g. Corning #3673). Compound was added via pintool transfer (10 nl/well) using a Biomek FX robot (BeckmanCoulter). Reaction was started by addition of 2 μl ATP working solution and mixed using variomag teleshaker (Thermo Fischer Scientific). After 1 h incubation at room temperature the reaction was stopped with 10 μl detection mix containing the Eu-labeled phosphospecific antibody and 10 mM EDTA. After a second incubation period of 1 h at room temperature the FRET signal was measured at 340 nm excitation, 665 nm and 615 nm emission (for the ULight-substrate and Eu-AB, respectively) with an Envision spectrophotometer (Perkin Elmer, Waltham, Mass., USA) with 50 μs delay and 300 μs integration time. IC50 values were determined from the sigmoidal dose response curves with the software Quattro Workflow (Quattro GmbH, Munich, Germany).

A431 = A431 CellTiter-Glo; assay type: cell-based; settings: Homo sapiens, A-431; 72 h compound incubation; read-out: A431 CTG IC50
Experimental: as §1, §2, §4

Sequence of EGFR Exon 20 INSNPH Ba/F3 (P00533 with tags, fused parts or gaps DUP771-773): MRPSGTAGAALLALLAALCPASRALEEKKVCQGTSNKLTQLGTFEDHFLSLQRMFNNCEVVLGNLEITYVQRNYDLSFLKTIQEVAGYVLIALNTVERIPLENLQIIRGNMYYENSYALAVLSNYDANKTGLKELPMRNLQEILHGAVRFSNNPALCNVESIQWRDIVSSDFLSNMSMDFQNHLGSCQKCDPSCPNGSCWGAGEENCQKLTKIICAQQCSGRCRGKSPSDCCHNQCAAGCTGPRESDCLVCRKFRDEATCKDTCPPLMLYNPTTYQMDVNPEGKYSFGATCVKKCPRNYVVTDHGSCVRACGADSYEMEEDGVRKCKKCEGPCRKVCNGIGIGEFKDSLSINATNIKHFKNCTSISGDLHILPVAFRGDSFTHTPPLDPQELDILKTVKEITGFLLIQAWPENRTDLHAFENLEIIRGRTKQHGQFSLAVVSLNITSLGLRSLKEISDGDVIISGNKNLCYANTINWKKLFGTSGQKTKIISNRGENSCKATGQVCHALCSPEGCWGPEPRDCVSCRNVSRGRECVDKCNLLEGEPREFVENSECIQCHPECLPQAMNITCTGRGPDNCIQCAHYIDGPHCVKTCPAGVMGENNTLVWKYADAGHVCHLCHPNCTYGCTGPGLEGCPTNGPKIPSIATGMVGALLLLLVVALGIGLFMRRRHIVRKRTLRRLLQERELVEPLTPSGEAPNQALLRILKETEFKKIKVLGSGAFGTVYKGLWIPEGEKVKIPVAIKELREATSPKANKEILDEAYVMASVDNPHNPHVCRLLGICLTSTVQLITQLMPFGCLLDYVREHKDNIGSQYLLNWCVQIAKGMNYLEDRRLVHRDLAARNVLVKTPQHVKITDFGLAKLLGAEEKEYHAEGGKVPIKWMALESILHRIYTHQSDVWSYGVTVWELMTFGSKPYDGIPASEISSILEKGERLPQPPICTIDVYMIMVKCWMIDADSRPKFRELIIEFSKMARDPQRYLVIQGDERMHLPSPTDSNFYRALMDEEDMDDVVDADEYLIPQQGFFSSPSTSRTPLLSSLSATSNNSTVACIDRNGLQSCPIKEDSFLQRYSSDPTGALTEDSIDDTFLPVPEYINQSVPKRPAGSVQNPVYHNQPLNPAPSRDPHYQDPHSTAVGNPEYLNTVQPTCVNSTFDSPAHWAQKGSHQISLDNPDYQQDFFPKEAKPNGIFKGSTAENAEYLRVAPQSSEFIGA
T1 sequence (P04626 with tags, fused parts or gaps INS775YVMA): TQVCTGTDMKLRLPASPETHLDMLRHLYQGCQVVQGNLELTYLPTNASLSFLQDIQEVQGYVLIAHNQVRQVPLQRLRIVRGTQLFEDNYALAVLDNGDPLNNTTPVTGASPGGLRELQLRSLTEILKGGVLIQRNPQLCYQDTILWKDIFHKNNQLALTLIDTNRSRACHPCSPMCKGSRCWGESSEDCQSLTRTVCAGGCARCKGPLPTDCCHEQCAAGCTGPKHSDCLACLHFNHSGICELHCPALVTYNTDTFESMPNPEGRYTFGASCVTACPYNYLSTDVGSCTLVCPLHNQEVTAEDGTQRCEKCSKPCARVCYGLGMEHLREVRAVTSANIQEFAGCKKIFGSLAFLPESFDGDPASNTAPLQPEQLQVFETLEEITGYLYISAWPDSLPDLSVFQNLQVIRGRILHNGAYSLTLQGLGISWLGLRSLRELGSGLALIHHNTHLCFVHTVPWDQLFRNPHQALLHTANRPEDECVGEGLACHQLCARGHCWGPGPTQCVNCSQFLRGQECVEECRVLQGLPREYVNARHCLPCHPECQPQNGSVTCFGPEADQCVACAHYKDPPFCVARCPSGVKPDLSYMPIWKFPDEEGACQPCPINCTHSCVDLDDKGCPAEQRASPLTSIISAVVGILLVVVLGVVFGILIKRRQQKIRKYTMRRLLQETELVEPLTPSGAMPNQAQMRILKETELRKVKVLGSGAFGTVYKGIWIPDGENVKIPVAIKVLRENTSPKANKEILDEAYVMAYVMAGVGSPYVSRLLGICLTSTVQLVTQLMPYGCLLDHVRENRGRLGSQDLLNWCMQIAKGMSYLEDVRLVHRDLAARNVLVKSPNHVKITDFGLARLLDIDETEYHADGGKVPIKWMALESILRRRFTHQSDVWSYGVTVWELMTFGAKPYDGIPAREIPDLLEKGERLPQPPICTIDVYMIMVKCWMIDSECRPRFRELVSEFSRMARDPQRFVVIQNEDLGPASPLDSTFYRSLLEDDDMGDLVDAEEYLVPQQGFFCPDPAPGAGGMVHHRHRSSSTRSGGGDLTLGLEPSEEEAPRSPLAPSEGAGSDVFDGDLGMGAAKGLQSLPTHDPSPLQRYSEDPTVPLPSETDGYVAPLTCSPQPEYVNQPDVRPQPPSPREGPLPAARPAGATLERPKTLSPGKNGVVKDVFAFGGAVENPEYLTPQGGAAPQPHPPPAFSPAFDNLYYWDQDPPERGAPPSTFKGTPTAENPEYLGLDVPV
Sequence of EGFR T790ML858R (P00533 25-1210 T790M/L858R): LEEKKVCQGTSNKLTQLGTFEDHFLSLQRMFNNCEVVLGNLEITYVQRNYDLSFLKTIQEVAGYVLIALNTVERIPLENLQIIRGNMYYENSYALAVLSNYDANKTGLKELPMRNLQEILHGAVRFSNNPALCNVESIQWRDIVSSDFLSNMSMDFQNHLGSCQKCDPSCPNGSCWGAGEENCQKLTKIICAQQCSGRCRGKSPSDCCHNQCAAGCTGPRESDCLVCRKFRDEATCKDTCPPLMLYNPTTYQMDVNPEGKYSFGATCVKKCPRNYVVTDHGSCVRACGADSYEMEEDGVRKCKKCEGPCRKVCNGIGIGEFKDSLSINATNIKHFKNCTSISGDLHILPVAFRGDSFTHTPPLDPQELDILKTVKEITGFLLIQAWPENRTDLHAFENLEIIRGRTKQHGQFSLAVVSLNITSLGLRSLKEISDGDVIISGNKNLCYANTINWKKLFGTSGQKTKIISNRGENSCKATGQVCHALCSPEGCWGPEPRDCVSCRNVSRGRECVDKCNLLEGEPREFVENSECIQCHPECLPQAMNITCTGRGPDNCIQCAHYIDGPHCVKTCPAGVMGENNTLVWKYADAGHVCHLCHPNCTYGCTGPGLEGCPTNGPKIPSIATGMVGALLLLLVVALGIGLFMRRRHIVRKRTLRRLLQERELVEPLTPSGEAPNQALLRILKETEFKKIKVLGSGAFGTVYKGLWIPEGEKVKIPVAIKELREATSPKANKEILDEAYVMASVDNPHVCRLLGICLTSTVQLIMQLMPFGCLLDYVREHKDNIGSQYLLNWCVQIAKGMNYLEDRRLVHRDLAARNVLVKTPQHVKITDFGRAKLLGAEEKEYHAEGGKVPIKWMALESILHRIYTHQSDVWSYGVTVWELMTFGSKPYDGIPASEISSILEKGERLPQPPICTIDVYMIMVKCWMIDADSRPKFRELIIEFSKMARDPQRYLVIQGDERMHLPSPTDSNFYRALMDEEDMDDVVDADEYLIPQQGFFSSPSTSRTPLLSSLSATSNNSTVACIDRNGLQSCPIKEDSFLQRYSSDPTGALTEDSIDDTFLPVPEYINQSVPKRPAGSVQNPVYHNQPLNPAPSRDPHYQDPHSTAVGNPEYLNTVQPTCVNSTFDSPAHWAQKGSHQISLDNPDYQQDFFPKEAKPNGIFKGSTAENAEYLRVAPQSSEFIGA
Sequence of EGFR wt (P00533 25-1210): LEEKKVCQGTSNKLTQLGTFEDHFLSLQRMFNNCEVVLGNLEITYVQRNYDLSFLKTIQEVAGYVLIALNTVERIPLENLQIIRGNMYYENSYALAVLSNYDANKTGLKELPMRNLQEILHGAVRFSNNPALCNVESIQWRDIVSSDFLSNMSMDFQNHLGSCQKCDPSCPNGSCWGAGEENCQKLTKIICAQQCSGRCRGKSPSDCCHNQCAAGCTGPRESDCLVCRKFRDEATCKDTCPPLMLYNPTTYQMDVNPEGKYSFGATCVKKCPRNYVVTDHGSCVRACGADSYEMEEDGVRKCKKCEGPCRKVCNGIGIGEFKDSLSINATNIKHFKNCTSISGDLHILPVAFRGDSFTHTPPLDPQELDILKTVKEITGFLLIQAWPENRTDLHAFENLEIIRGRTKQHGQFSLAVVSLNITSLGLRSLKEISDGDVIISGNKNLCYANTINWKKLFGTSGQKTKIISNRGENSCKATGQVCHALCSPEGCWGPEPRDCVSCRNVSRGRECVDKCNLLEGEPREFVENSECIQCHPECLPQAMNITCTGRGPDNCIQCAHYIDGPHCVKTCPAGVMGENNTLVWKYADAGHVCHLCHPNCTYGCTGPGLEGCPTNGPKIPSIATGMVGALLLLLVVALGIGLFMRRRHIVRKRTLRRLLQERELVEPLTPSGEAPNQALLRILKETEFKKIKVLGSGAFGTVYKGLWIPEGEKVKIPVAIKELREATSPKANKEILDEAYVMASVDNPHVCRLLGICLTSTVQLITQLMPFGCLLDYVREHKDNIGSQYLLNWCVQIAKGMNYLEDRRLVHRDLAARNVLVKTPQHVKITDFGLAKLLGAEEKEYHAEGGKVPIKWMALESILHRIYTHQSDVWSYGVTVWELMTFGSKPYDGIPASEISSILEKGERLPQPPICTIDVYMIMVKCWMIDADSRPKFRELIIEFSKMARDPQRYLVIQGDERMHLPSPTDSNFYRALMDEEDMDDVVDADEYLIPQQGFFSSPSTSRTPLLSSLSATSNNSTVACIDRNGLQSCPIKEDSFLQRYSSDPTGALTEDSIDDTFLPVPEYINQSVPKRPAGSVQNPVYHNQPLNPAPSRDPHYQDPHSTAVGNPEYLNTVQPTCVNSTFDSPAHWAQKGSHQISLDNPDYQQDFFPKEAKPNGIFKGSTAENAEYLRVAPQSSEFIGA

Compound | GI50 [1] [nM] | pIC50 (EGFR wt) | GI50 [2] [nM] | pIC50 (H1975) | pIC50 (EGFR T790ML858R) | pIC50 (HER2 INS YVMA) | pIC50 (A431)
C=CC(=O)Nc1cc(-c2c(-c3ccc(N4CCN(C)CC4)cc3)[nH]c3ncc(CC(=O)OC)cc23)ccc1C [Example 195, methyl 2-(3-(3-acrylamido-4-methylphenyl)-2-(4-(4-methylpiperazin-1-yl)phenyl)-1H-pyrrolo[2,3-b]pyridin-5-yl)acetate] | 100 to 500 | ≥ 7.00 | 100 to 500 | 6.30 to 7.00 | ≥ 7.00 | ≥ 7.00 | 4.00 to 6.00
C=CC(=O)Nc1cc(-c2c(-c3ccc(N4CCN(C)CC4)cc3)[nH]c3ncc(C(=O)NCC4CCN(C)CC4)cc23)ccc1C [Example 129, 3-(3-acrylamido-4-methylphenyl)-2-(4-(4-methylpiperazin-1-yl)phenyl)-N-((1-methylpiperidin-4-yl)methyl)-1H-pyrrolo[2,3-b]pyridine-5-carboxamide] | > 10000 | 6.30 to 7.00 | > 10000 | < 5.00 | 6.30 to 7.00 | 6.00 to 6.30 | < 5.00
C#CC(=O)Nc1cc(-c2c(-c3ccc(N4CCN(C)CC4)cc3)[nH]c3nccc(Cl)c23)ccc1C [Example 144, N-(5-(4-chloro-2-(4-(4-methylpiperazin-1-yl)phenyl)-1H-pyrrolo[2,3-b]pyridin-3-yl)-2-methylphenyl)propiolamide 2,2,2-trifluoroacetate] | 1000 to 10000 | ≥ 7.00 | 1000 to 10000 | 4.00 to 6.00 | ≥ 7.00 | ≥ 7.00 | 4.00 to 6.00
C=CC(=O)Nc1cc(-c2c(-c3cccc(CN4CCN(C(C)=O)CC4)c3)[nH]c3ncc(C(=O)OC(C)C)cc23)ccc1C [Example 186, isopropyl 2-(3-((4-acetylpiperazin-1-yl)methyl)phenyl)-3-(3-acrylamido-4-methylphenyl)-1H-pyrrolo[2,3-b]pyridine-5-carboxylate] | 1000 to 10000 | ≥ 7.00 | 1000 to 10000 | 4.00 to 6.00 | 6.30 to 7.00 | 6.30 to 7.00 | 4.00 to 6.00
C=CC(=O)Nc1cc(-c2c(-c3ccc(N4CCN(C)CC4)cc3)[nH]c3ncc(OCC)cc23)ccc1C [Example 193, N-(5-(5-ethoxy-2-(4-(4-methylpiperazin-1-yl)phenyl)-1H-pyrrolo[2,3-b]pyridin-3-yl)-2-methylphenyl)acrylamide 2,2,2-trifluoroacetate] | ≤ 100 | ≥ 7.00 | 100 to 500 | 6.30 to 7.00 | ≥ 7.00 | ≥ 7.00 | 4.00 to 6.00
C=CC(=O)Nc1cc(-c2c(-c3ccc(N4CCN(C)CC4)cc3)[nH]c3ncc(NC(=O)C(C)C)cc23)ccc1C [Example 200, N-(5-(5-isobutyramido-2-(4-(4-methylpiperazin-1-yl)phenyl)-1H-pyrrolo[2,3-b]pyridin-3-yl)-2-methylphenyl)acrylamide 2,2,2-trifluoroacetate] | 100 to 500 | ≥ 7.00 | 100 to 500 | 4.00 to 6.00 | ≥ 7.00 | ≥ 7.00 | 4.00 to 6.00
C/C=C/C(=O)Nc1cc(-c2c(-c3ccc(N4CCN(C)CC4)cc3)[nH]c3nccc(Cl)c23)ccc1C [Example 142, (E)-N-(5-(4-chloro-2-(4-(4-methylpiperazin-1-yl)phenyl)-1H-pyrrolo[2,3-b]pyridin-3-yl)-2-methylphenyl)but-2-enamide 2,2,2-trifluoroacetate] | 1000 to 10000 | ≥ 7.00 | 1000 to 10000 | 6.30 to 7.00 | ≥ 7.00 | 6.00 to 6.30 | 4.00 to 6.00
C=CC(=O)Nc1cc(-c2c(-c3cccc(OCCCN(C)C)c3)[nH]c3ncc(C(=O)OC(C)C)cc23)ccc1C [Example 183, isopropyl 3-(3-acrylamido-4-methylphenyl)-2-(3-(3-(dimethylamino)propoxy)phenyl)-1H-pyrrolo[2,3-b]pyridine-5-carboxylate] | 100 to 500 | ≥ 7.00 | 100 to 500 | 6.30 to 7.00 | ≥ 7.00 | ≥ 7.00 | 4.00 to 6.00
C=CC(=O)Nc1cc(-c2c(-c3ccc(N4CCN(C(C)=O)CC4)cc3)[nH]c3ncc(C(=O)OC(C)C)cc23)ccc1C [Example 162, isopropyl 2-(4-(4-acetylpiperazin-1-yl)phenyl)-3-(3-acrylamido-4-methylphenyl)-1H-pyrrolo[2,3-b]pyridine-5-carboxylate] | 1000 to 10000 | ≥ 7.00 | 500 to 1000 | 4.00 to 6.00 | ≥ 7.00 | ≥ 7.00 | 4.00 to 6.00
C=CC(=O)Nc1cc(-c2c(-c3ccc(N4CCN(C)CC4)cc3)[nH]c3ncc(C(=O)OC(C)C)c(C)c23)ccc1C [Example 198, isopropyl 3-(3-acrylamido-4-methylphenyl)-4-methyl-2-(4-(4-methylpiperazin-1-yl)phenyl)-1H-pyrrolo[2,3-b]pyridine-5-carboxylate] |  | ≥ 7.00 |  | 6.30 to 7.00 | ≥ 7.00 | ≥ 7.00 | 6.00 to 6.30
C=CC(=O)Nc1cc(-c2c(-c3cccc(N4CCN(C(C)=O)CC4)c3)[nH]c3nccc(Cl)c23)ccc1C [Example 35, N-(5-(2-(3-(4-acetylpiperazin-1-yl)phenyl)-4-chloro-1H-pyrrolo[2,3-b]pyridin-3-yl)-2-methylphenyl)acrylamide] | 500 to 1000 | ≥ 7.00 | 500 to 1000 | ≥ 7.00 | ≥ 7.00 | 6.30 to 7.00 | 
C=CC(=O)Nc1cc(-c2c(-c3cccc(C(=O)N4CCC5(CC4)CN(C)C5)c3)[nH]c3nccc(Cl)c23)ccc1C [Example 53, N-(5-(4-chloro-2-(3-(2-methyl-2,7-diazaspiro[3.5]nonane-7-carbonyl)phenyl)-1H-pyrrolo[2,3-b]pyridin-3-yl)-2-methylphenyl)acrylamide] | 1000 to 10000 | ≥ 7.00 | 1000 to 10000 | 6.30 to 7.00 | ≥ 7.00 | ≥ 7.00 | 
C=CC(=O)Nc1cc(-c2c(-c3cccc(C(=O)NCCCN(C)Cc4ccccc4)c3)[nH]c3nccc(Cl)c23)ccc1C [Example 51, 3-(3-(3-acrylamido-4-methylphenyl)-4-chloro-1H-pyrrolo[2,3-b]pyridin-2-yl)-N-(3-(benzyl(methyl)amino)propyl)benzamide] | 500 to 1000 | ≥ 7.00 | 500 to 1000 | ≥ 7.00 | ≥ 7.00 | 6.30 to 7.00 | 
